Reference: US4039660A, “Antibiotic Y-G19Z D3 and the production thereof” (Yamanouchi Pharmaceutical Co., Ltd., priority 1974, dated 1977)

Tests used:
Experiment in all cases: Inhibition zone, disc on seeded Heart infusion agar
Type in all cases: cell-based
[1] = system: Proteus morganii; conditions: Morganella morganii, disc dipped in 125 mcg/ml solution, read-out: diameter of the inhibition zone
Description: (§1) Antimicrobial activities of Y-G19ZD3 in comparison with those of Cephalosporin C against various microorganisms are shown in Table 3. The figure indicates the diameter (mm) of the inhibition zone obtained with a disc dipped in 125 mcg/ml solution on Heart infusion agar seeded with each organism.

[2] = system: Klebsiella pneumoniae; conditions: disc dipped in 125 mcg/ml solution, read-out: diameter of the inhibition zone
Description: as §1

[3] = system: Proteus mirabilis IMF-OM9; conditions: IMFOM9, read-out: diameter of the inhibition zone
Description: as §1

[4] = system: Basillus subtilis ATCC 6633; conditions: read-out: diameter of the inhibition zone
Description: as §1

[5] = system: Sarcina lutea ATCC 9941; conditions: Micrococcus luteus, ATCC9941, read-out: diameter of the inhibition zone
Description: as §1

[6] = system: Staphylococcus aureus 209 P; conditions: disc dipped in 125 mcg/ml solution, read-out: diameter of the inhibition zone
Description: as §1

[7] = system: Proteus vulgaris; conditions: disc dipped in 125 mcg/ml solution, read-out: diameter of the inhibition zone
Description: as §1

Structure (SMILES): CC(=O)OCC1=C(C(=O)O)N2C(=O)[C@@H](NC(=O)CCC[C@@H](N)C(=O)O)[C@H]2SC1 [Cephalosporin C]
- zone of inhibition at 125 µg/mL [1]: 0 mm
- zone of inhibition at 125 µg/mL [2]: 0 mm
- zone of inhibition at 125 µg/mL [3]: 17.6 mm
- zone of inhibition at 125 µg/mL [4]: 13.5 mm
- zone of inhibition at 125 µg/mL [5]: 0 mm
- zone of inhibition at 125 µg/mL [6]: 0 mm
- zone of inhibition at 125 µg/mL [7]: 0 mm
